In data set [1] the test system is mammalian (porcine) trehalase. Put plainly: Trehalase degradation assay. Type of data set: in vitro ADME. The settings on record: 0.3 units/mL trehalase, 10 mM substrate; for degradation by trehalase (Figure S5, released glucose): pH 5.7, 37 °C, 60 minutes. Here is the method:
The metabolic stabilities of the remaining three analogs, [^18F]FDT, 4-epi-[^18F]FDT and 6-[^18F]FDT were tested. Although, human trehalose-degrading trehalase activity is low and restricted primarily to the brush-border of the kidney where it is thought to be GPI-anchored[28],[32], it can be elevated in some diseases, therefore we also tested degradation of the analogs in vitro using high concentrations of mammalian (porcine) trehalase (0.3 units/mL, 10 mM substrate, Fig. S5). […]
Figure S5. Trehalase Assays.
Substrates were prepared to a final concentration of 10 mM in 0.05 M citric acid, pH 5.7 including trehalase stock solution (0.3 units/mL). The reaction mixture was incubated at 37 °C for 60 minutes, and then quenched with an equal volume of 0.1 M Tris, pH 7.5. Released glucose was measured with glucose assay kit (see Methods).

Data set [2] can be described thus: [19F]FDT clearance and in vivo stability in marmosets (plasma LC-MS, 19F NMR). The note with it: common marmoset, plasma, iv, 20 mg, marmosets M1-M3 (duplicate measurements), 20 mg IV. Also noted: species or system common marmosets. Here is the method: In order to determine [^19F]FDT metabolism in vivo, we assessed concentration vs time in two mammalian species: common marmosets and C57BL/6 mice. For marmosets weighing between 290.3–340.3 g, 20 mg of sterile-filtered FDT in PBS was injected IV (n = 3) and ~200 μL blood samples were taken from the femoral vein at 0 min, 5 min, 30 min, 60 min, 90 min and 180 min post injection. Samples were spun (4000 rcf for 10 mins at room temp) to separate red cell mass from plasma. Plasma portion was separated and stored at −80 °C for further analysis. Similarly, mice weighing from 18.7–20.5 g were injected (n = 5) with 5 mg of filter-sterilized FDT solution dissolved in PBS solution, pH 7.4. Mandibular blood samples were taken at 2 min, 15 min, 30 min and 45 min post injection. For the last sample in each mouse, the animal was bled out to get maximum sample for NMR analysis. Final urine samples were collected in 3 out of 5 mice through free catch. Blood samples were centrifuged (6500 rcf for 4 mins at room temp) to separate red cell mass from plasma, and plasma was separated and stored at −80 °C prior to analyzes.
Plasma samples from −80 °C were thawed on ice and mixed with 80% acetonitrile to precipitate plasma proteins and other biomolecules. Samples were centrifuged at 10,000 g, 4 °C for 10 min.
Figure S37. [19F]FDT Clearance and In Vivo Stability in Non-human Primates […]
A, B) 20 mg [19F]FDT was injected into marmosets (A, n=3 biological replicates, each measured in duplicate) and 5 mg FDT injected into mice (B, n=5 biological replicates, each measured in triplicate). […]
marmosets (A) and mice (B).
[19F]FDG was detected, consistent with the only low levels of metabolism seen with [18F]FDT in rabbits (see Figure S3G). C-F) We further analyzed the potential degradation of FDT into FDG by 19F NMR spectroscopy in marmoset plasma (C) sample from 5 min time point, mouse plasma (D) sample from 30 min time point and mouse urine samples from 30 min (E) and 45 min (F) time points, respectively. In all these samples only [19F]FDT was observed (d -201.2). The data points are average values from three replicates with error bars ± SD.
(1 picture or pasted object on this page, not shown here)

Data set [3] can be described thus: Human microsomal stability assay. The settings on record: human, microsomes, pH 7.4, %Remaining, human liver microsomes. On the procedure:
Microsomal stability assay was carried out as described previously. In brief, 10 x reduced nicotinamide adenine dinucleotide phosphate (NADPH)-regenerating system was freshly prepared by dissolving 37.2 mg glucose-6-phosphate (Sigma) in 1 mL of 100 mM potassium phosphate buffer, 39.8 mg nicotinamide adenine dinucleotide phosphate (NADP, Sigma) in 1 mL of potassium phosphate buffer, 11.5 U glucose-6-phosphate dehydrogenase (Thermo) in 1 mL of potassium phosphate buffer and 26.8 mg MgCl2.6H2O (Sigma) in 1 mL of distilled water. All these solutions were combined and kept on ice. […] After 5 min, 18 µL of NADPH-regenerating system was added to initiate reaction. Immediately after adding the NADPH regenerating system, 50 µL, 0 min time point sample was taken and quenched with equal volume of ice-cold methanol. Similarly further samples were taken at 10 min, 30 min, 60 min, 90 min and 120 min. Samples were centrifuged at 10,000 g at 4 °C for 10 min. […] After incubating the reaction mix at 37 °C for 5 min, 36 µL of NADPH regenerating system was added to initiate the reaction. 50 µL samples were taken at 0 min, 2.5 min, 5 min, 10 min, 20 min, 40 min and 80 min and reactions were quenched by adding equal amount of ice-cold acetonitrile and kept on ice.

Data set [4] can be described thus: In vivo metabolism of 18F-labeled trehalose analogs in rabbits. On the procedure:
Finally, putative degradation was also probed directly in vivo using both Mtb-infected and naïve rabbits.
Blood (100 µL), urine (100–300 µL) and lesion samples were collected from animals and diluted 2:1 v/v with acetonitrile to sterilize them. These samples were then vortexed, centrifuged and the supernatant analyzed by either HPLC or TLC. The TLC silica gel plates used to assay these metabolism samples and lesion extracts were 150 Å Silica Gel HL 250 µm 10 ×20 cm channeled plates with a pre-adsorbent zone purchased from Analtech/iChromatography (Newark, DE). TLC plates were visualized via exposure to a phosphor screen for 16 h prior to imaging using a phosphor screen and Typhoon FLA7000 (GE Healthcare, Pittsburgh PA) or using a BioScan AR-2000 reader.

For data set [5] the following is noted: 1.5 hr voiding window; cited from earlier work.
Data set [6] deals with Mtb-infected marmoset lung lesions. Briefly: PET/CT imaging of tracer uptake in marmoset TB model. Type of data set: in vivo. The note with it: for SUV/CMR / TGA/CMR: FDG, individual lesions. On the procedure:
Rabbits and marmosets at NIAID were anaesthetized and maintained during imaging[49],[67]. Syringes of FDG or FDT were measured in a dose calibrator immediately before and after injection, targeting = injected doses of 2 mCi/kg. During uptake and distribution of the probes, a CT scan from the base of the skull spanning the lungs and the upper abdominal cavity was acquired as described for each species on a helical eight-slice Neurological Ceretom CT scanner (NeuroLogicia, Danvers, MA) operated as part of a hybrid pre-clinical PET/CT system utilizing a common bed. The animal bed was then retracted into the microPET gantry (MicroPET Focus 220, Siemens Preclinical Solutions, Knoxville, TN) and sixty minutesβ ± 5 min post FDG injection, a series of 2 or 3, 10 min emission scans with 75 mm thick windows with a 25 mm overlap were acquired caudal to cranial. […] For the blocking studies, injections of 150 µg of [^19F]FDT synthesized as described above were administered 60 min and 5 min prior to the [^18F]-FDT tracer and the scans were acquired as before. Two animals were used in the blocking studies with one animal receiving the blocking agent while the other was administered saline only prior to the FDT tracer. Two days later, the administrations were reversed so that the second animal received the blocking agent. The emission data for all scans were processed and corrected. Cynomolgus macaques (n = 3) at the University of Pittsburgh were imaged using a Siemens microPET Focus 220 PET scanner and a Neurological Ceretom CT scanner. Paired FDG and FDT scans were collected on only 2 macaques pre-necropsy. Scans were viewed using OsiriX (Pixmeo, Geneva, Switzerland) to identify and analyze individual granulomas as described previously.
Dense lesion centers were subsequently identified for inclusion in the lung region manually and the program calculated the FDG signal parameters. In addition, each lesion within the lung was marked with a 3-D region of interest (ROI). In uninfected marmosets administered FDT, ROIs with a similar-volume (dia. 5 to 7 mm) were distributed in the lung as mock lesions according to the method of Ordonez et al.[70] and the SUV statistics for the ROIs were captured into excel sheets for analysis.

Substrate in data set [7]: O=C[C@H](O)[C@@H](O)[C@H](O)[C@H](O)COP(=O)(O)O
Put plainly: OtsA^Sf enzyme kinetic assay (NADH-linked continuous). Type of data set: biochemical, E. coli. The settings on record: other: enzyme expressed from Spodoptera frugiperda, coupled-enzyme spectrophotometric assay, 25 °C, pH 7.5.

Where “and” joins values, the source holds several entries; their conditions need not be identical. Equal entries are not always repeated.

In the case of `OC[C@H]1O[C@H](O[C@H]2O[C@H](CO)[C@@H](F)[C@H](O)[C@H]2O)[C@H](O)[C@@H](O)[C@@H]1O` [4-epi-[^19F]FDT], in data set [1], the degradation by trehalase result was “little or no degradation” and the “degradation by trehalase (Figure S5, released glucose)” value turned out to be 0.
As usually defined, the fraction remaining is the share of the starting amount still present when the sample was taken. `OC[C@H]1O[C@H](O[C@H]2O[C@H](CO)[C@@H](O)[C@H](O)[C@H]2F)[C@H](O)[C@@H](O)[C@@H]1O` [FDT] showed a concentration at 5 min in data set [2] (5 min post injection) of 551 µM. The concentration at 30 min in data set [2] (30 min post injection) is 250 µM. Also, in data set [2] (61 min post injection), the concentration at 61 min stood at 173 µM. Further, in data set [2] (93 min post injection), the concentration at 93 min is 97.1 µM. Further, in data set [3] (0 min), the fraction remaining at 0 h, 3 µM was determined as 100%. Also, the share remaining at 5 min, 3 µM in data set [3] (5 min) amounted to 74.5%. In data set [3] (10 min), this molecule came in with a fraction remaining at 10 min, 3 µM of 58.5%. The fraction remaining at 20 min, 3 µM in data set [3] (20 min) stood at 55.3%. The molecule also yielded a fraction remaining at 40 min, 3 µM in data set [3] (40 min) of 56.6%. Moreover, the amount remaining at 2.5 min, 3 µM in data set [3] ([…]) amounted to 80.1%.
Take `OC[C@H]1O[C@H](O[C@H]2O[C@H](CO)[C@@H](O)[C@H](O)[C@H]2O)[C@H](O)[C@@H](O)[C@@H]1O` [trehalose, reference compound]: in data set [1], the degradation by trehalase entry is listed as “complete degradation” and the “degradation by trehalase (Figure S5, released glucose)” value is reported as 100.
For `OC[C@H]1O[C@H](O[C@H]2O[C@H](CO)[C@H]([18F])[C@H](O)[C@H]2O)[C@H](O)[C@@H](O)[C@@H]1O` [4-epi-[^18F]FDT], the “epi-4-Ftre (%)” value came out at 100% in data set [4] (Control Rabbits, 0 min); 87% in data set [4] (Control Rabbits, 15 min); 78% in data set [4] (Control Rabbits, 30 min); 87% in data set [4] (Control Rabbits, 45 min); 73% in data set [4] (Control Rabbits, 60 min); 82% in data set [4] (Control Rabbits, 90 min). Also, the “epi-4-Ftre (%)” value in data set [4] (Control Rabbits, 120 min) came to 76%; in data set [4] (Control Rabbits, 180 min), 71%; in data set [4] (Infected Rabbits, 0 min) it was 100%; in data set [4] (Infected Rabbits, 15 min), 89%; in data set [4] (Infected Rabbits, 30 min) it was 87%; in data set [4] (Infected Rabbits, 45 min) it was 84%. Besides, the “epi-4-Ftre (%)” value was 81% in data set [4] (Infected Rabbits, 60 min); 76% in data set [4] (Infected Rabbits, 90 min); 91% in data set [4] (Infected Rabbits, 120 min); 90% in data set [4] (Infected Rabbits, 180 min). The molecule also showed a metabolism in data set [4] (rabbits, after 3 h) of 30%.
For the molecule “2-[^18F]fluoro-2-deoxy-D-glucose [[^18F]FDG]”, in data set [5], the “dose, adrenals” value was 0.013 mSv/MBq; the “dose, kidneys” value was 0.020 mSv/MBq; the “dose, urinary bladder wall” value is on record as 0.086 mSv/MBq. In addition, in data set [6] (4 wks HRZE), the SUV/CMR is 12.2544 and 1.845 and 5.193 and 8.368 and 5.63 and 1.286 and 5.952 and 5.153 and 7.3616; the TGA/CMR was 11.4228 and 0.1147 and 1.936 and 8.84 and 2.799 and 0.1598 and 9.617 and 2.242 and 13.7241. Also, in data set [6] (Pre-Rx), the SUV/CMR is 5.878 and 2.269 and 2.719 and 4.3218 and 3.722 and 2.294 and 3.185 and 2.868 and 3.6021; the TGA/CMR is 7.811 and 0.2621 and 2.6706 and 8.989 and 4.301 and 0.5302 and 6.073 and 2.651 and 5.8274. Further, the “uptake response to treatment (SUVs and TLG)” value in data set [6] (marmosets, 4 weeks HRZE) is “mixed, refractory and inconsistent uptake”.
As for `OC[C@H]1O[C@H](O[C@H]2O[C@H](CF)[C@@H](O)[C@H](O)[C@H]2O)[C@H](O)[C@@H](O)[C@@H]1O` [6-[^19F]FDT], in data set [1], the degradation by trehalase is 14% and the “degradation by trehalase (Figure S5, released glucose)” value is 14.

B1: OtsA^Sf (Escherichia coli K-12) (protein)
chain: MSRLVVVSNRIAPPDEHAASAGGLAVGILGALKAAGGLWFGWSGETGNEDQPLKKVKKGNITWASFNLSEQDLDEYYNQFSNAVLWPAFHYRLDLVQFQRPAWDGYLRVNALLADKLLPLLQDDDIIWIHDYHLLPFAHELRKRGVNNRIGFFLHIPFPTPEIFNALPTYDTLLEQLCDYDLLGFQTENDRLAFLDCLSNLTRVTTRSAKSHTAWGKAFRTEVYPIGIEPKEIAKQAAGPLPPKLAQLKAELKNVQNIFSVERLDYSKGLPERFLAYEALLEKYPQHHGKIRYTQIAPTSRGDVQAYQDIRHQLENEAGRINGKYGQLGWTPLYYLNQHFDRKLLMKIFRYSDVGLVTPLRDGMNLVAKEYVAAQDPANPGVLVLSQFAGAANELTSALIVNPYDRDEVAAALDRALTMSLAERISRHAEMLDVIVKNDINHWQECFISDLKQIVPRSAESQQRDKVATFPKLA
notes: His tag (type from Ni-NTA purification and anti-His blot) (C); made in house; host or cells: Spodoptera frugiperda Sf9 cells (Bac-to-Bac baculovirus)
A word on the Km: it is the concentration of substrate that gives half-maximal velocity. As usually defined, the kcat is the number of substrate molecules converted per active site and unit of time at saturation. A word on the kcat/Km: it is the turnover number divided by the Michaelis constant. In the case of B1, in data set [7], the Michaelis-Menten constant (Km) is given as 4.9 ± 0.5 mM, the kcat was found to be 57.5 ± 2.3 s⁻¹ and the catalytic efficiency (kcat/Km) is 11900 M⁻¹ s⁻¹.

These data come from article PMC11211441, “Distributable, metabolic PET reporting of tuberculosis” (Nature Communications, 2024).
